Results from patent US20250188088A1, “COMPOUND AND USE THEREOF” (ONQUALITY PHARMACEUTICALS CHINA LTD., priority 2022, published 2025).

How the values were obtained:
[1] = system: rash caused by small molecule EGFR inhibitors; assay: Prevention of rash caused by small molecule EGFR inhibitors, topical ointment, rat model; assay type: in vivo, SD rats
From the text: An Experiment to Verify the Prevention of Rash Caused by Small Molecule EGFR Inhibitors with Topical Administration of Compounds of the Present Application on a Rat Animal Model A rat animal model was established. After daily gavage of a small molecule EGFR inhibitor to female SD rats for […], the rats developed extensive rashes on their backs several days later (picture shown in FIG. 1). […] Similar to humans, rats developed skin rashes on their faces and bodies after oral administration of small molecule EGFR inhibitors. Both of them had the same etiology and very similar symptoms. Therefore, rats are a proper animal model for mimicking EGFR inhibitor-induced rash. After the SD rats were fed and adapted for one week (about 200 g), the rats were divided into 10 rats per group. The hair on the back of rats was gently removed with an electric razor one day before the experiment, and then an intragastric administration test was carried out. EGFR inhibitors were dissolved in a sterile aqueous solution, and diluted with PBS buffer; the amount of each gavage was not more than 2 mL, and the dosage was shown in Table 1. The experiment comprised the administration group and the control group. After intragastric administration, apply the ointment (type and concentration are shown in Table 1) of the compound used in the present application to the backs (about 3 cm*3 cm) of rats in the administration group; apply blank matrix ointment (about 0.5 g) to the backs (about 3 cm*3 cm) of rats in the control group; fix the rats with a fixed cylinder for about 4 hours after drug application, release the rats after 4 hours, wipe off the residual drug at the application site with clean water, and put them back into the cage. The frequency of intragastric administration of EGFR inhibitors is shown in Table 1, but the compounds of the present application and blank matrix ointment are applied only once a day. The intragastric administration and application test were repeated daily until an obvious rash appeared in the control group. […] Table 1 lists the animal experiment combination of various small molecule EGFR inhibitors and the compound ointment of the present application, as well as the corresponding experiment results (wherein, the value in the control rate column=the number of rats whose rash is milder in the administration group than that in the control group/the total number of rats in the administration group×100%).

[2] = Plasma stability, human plasma; assay type: in vitro ADME, Humans; conditions: 37° C.
Protocol: (§1) In addition, the plasma stability of these compounds was determined. Briefly, the determination method comprises the following steps: • 1) Thaw the frozen mixed plasma in a 37° C. water bath before testing, and then centrifuge at 4000 rpm for 5 min to remove blood clots; • 2) Add 98 μL blank plasma into each well of the 96-well reaction plate; • 3) In addition to the blank samples, add 2 μL of 100 μM working solution of test compound into each well; • 3) Incubate the reaction plate at 37° C. and start timing. Incubation times were 0, 10, 30, 60 and 120 minutes, respectively, with two replicate wells at each time point; • 4) Terminate the incubation at the corresponding time point, and add 400 μL of acetonitrile solution containing 200 ng/mL tolbutamide and 200 ng/mL labetalol to precipitate proteins; • 5) Shake each plate for 20 minutes, then centrifuge at 4000 rpm for 20 minutes, transfer 50 μL of supernatant to another 96-well plate, and dilute each sample with 100 μL of pure water; • 6) Analyze the sample by LC-MS/MS.
The experiment results are as follows, and it can be seen from the test results that the selected compounds are easily metabolized to the target compound in human plasma.

[3] = system: skin contact delayed-type hypersensitivity; assay: Skin contact delayed-type hypersensitivity (DNFB) response test, ear swelling, topical ointment; assay type: in vivo; conditions: topical to ears, DNFB DTH, Balb/c mice, compared to blank ointment
From the text: Therapeutic Effect of Topical Administration of Compounds of the Present Application in Skin Contact Delayed-Type Hypersensitivity Response Test in Mice Delayed-type hypersensitivity (DTH) response in mouse skin is considered to be an effective model for clinical contact dermatitis and other T cell-mediated cutaneous immune diseases, such as atopic dermatitis and psoriasis. The DTH in mice shares the common features with these cutaneous immune diseases, including immunoinfiltration with an increase of inflammatory cytokines and hyperproliferation of keratinocytes. Balb/c mice were sensitized by topical administration of the antigen 2,4-dinitrofluorobenzene (DNFB) to the shaved back of mice on Days 0 and 1. On Day 5, the thickness of the ears was measured using an engineering micrometer. The measurement result was recorded and used as a baseline. The animals were then challenged with a total of 20 μL of DNFB (10 μL for the internal pinna and 10 μL for the external pinna) topically dosed to both ears at a concentration of 0.2%. The ears were measured again 24-72 hours after challenge. The compound ointment of the present application was applied topically to the ears of the animals throughout the allergic and challenge periods (Days −1˜7) or before or throughout the challenge period (generally Days 4˜7). The therapeutic effect was expressed by a reduction in ear swelling compared to that of the blank ointment. The compound causing a reduction of 20% or more was considered effective. Table 5 lists the skin contact delayed-type hypersensitivity experiment results in mice treated with the compound of the present application.

[4] = Plasma stability, mini pig plasma; assay type: in vitro ADME, Mini Pigs; conditions: 37° C.
Protocol: as §1

[5] = system: rash caused by monoclonal EGFR inhibitors; assay: Prevention of rash caused by monoclonal EGFR inhibitors, topical ointment, rat model; assay type: in vivo, SD rats
Protocol: An Experiment to Verify the Prevention of Rash Caused by Monoclonal EGFR Inhibitors with Topical Administration of Compounds of the Present Application on a Rat Animal Model After the SD rats were fed and adapted for one week (about 200 g), the rats were divided into 10 rats per group. The hair on the back of rats was gently removed with an electric razor one day before the experiment, and then an administration test was carried out. The experiments were divided into the administration group with the compound of the present application and the control group. The EGFR monoclonal antibody solution diluted with normal saline was injected via the tail vein twice a week, and the injection rate and time are shown in Table 2. After injection, the administration group applied the compound ointment of the present application on the backs (about 3 cm*3 cm) of rats every day, and the control group applied blank matrix ointment (about 0.5 g) to the backs (about 3 cm*3 cm) of rats every day. After drug application, the rats were fixed with a fixed cyclinder for 4 h; after that, the rats were released and the residual drug at the application site was wiped off with clear water. Monoclonal antibody EGFR inhibitors were injected via the tail vein twice a week, and the compound of the present application and blank ointment were applied once a day until obvious rashes appeared in the control group. […] Table 2 lists the animal experiment combinations of various monoclonal antibody EGFR inhibitors and the compound ointment of the present application, as well as the corresponding experiment results (wherein, the value in the control rate column=the number of rats whose rash is milder in the administration group than that in the control group/the total number of rats in the administration group×100%).

[6] = system: rash caused by monoclonal EGFR inhibitors; assay: Treatment of rash caused by monoclonal EGFR inhibitors, topical ointment, rat model; assay type: in vivo; conditions: SD rats
Protocol: An Experiment to Verify the Treatment of Rash Caused by Monoclonal EGFR Inhibitors with Topical Administration of Compounds of the Present Application on a Rat Animal Model After the SD rats were fed and adapted for one week (about 200 g), the rats were divided into 10 rats per group. The hair on the back of rats was gently removed with an electric razor one day before the experiment, and then an administration test was carried out. The EGFR monoclonal antibody solution diluted with normal saline was injected via tail vein twice a week, and the injection rate and time were shown in Table 4; the treatment experiment was started at the time point when rats developed a rash after continuous administration for 1-2 weeks. The experiments were divided into the administration group with the compound of the present application and the control group. During the treatment experiment, monoclonal antibody EGFR inhibitors were injected twice a week. the administration group applied the compound ointment of the present application on the back (about 3 cm*3 cm) of rats every day, and the control group applied blank matrix ointment on the back (about 3 cm*3 cm); after application, the rats were fixed with a fixed cyclinder for about 4 hours, and then the rats were released, with the residual drug at the application site wiped off with clean water, and put back into the cage. […] Table 4 lists the animal experiment combinations of monoclonal antibody EGFR inhibitors and the compound ointment of the present application, as well as the corresponding experiment results (wherein, the value in the control rate column=the number of rats whose rash is milder in the administration group than that in the control group/the total number of rats in the administration group×100%).

[7] = system: rash caused by small molecule EGFR inhibitors; assay: Treatment of rash caused by small molecule EGFR inhibitors, topical ointment, rat model; assay type: in vivo, SD rats
Protocol: An Experiment to Verify the Treatment of Rash Caused by Small Molecule EGFR Inhibitors with Topical Administration of Compounds of the Present Application on a Rat Animal Model After the SD rats were fed and adapted for one week (about 200 g), the rats were divided into 10 rats per group. The hair on the back of rats was gently removed with an electric razor one day before the experiment, and then an intragastric administration test was carried out. EGFR inhibitors were dissolved in a sterile aqueous solution, and diluted with PBS buffer; the amount of each gavage was not more than 2 mL, and the dosage was shown in Table 3. […] The experiments were divided into the administration group with the compound of the present application and the control group. During the treatment experiment, EGFR inhibitors were intragastrically administered continuously every day. After the gavage, the administration group applied the compound ointment of the present application on the back (about 3 cm*3 cm) of rats, and the control group applied blank matrix ointment on the back (about 3 cm*3 cm); after application, the rats were fixed with a fixed cyclinder for about 4 hours, and then the rats were released, with the residual drug at the application site wiped off with clean water, and put back into the cage. The frequency of intragastric administration of EGFR inhibitors is shown in Table 3, but the compounds of the present application and blank ointment are applied only once a day. […] Table 3 lists the animal experiment combinations of various small molecule EGFR inhibitors and the compound ointment of the present application, as well as the corresponding experiment results (wherein, the value in the control rate column=the number of rats whose rash is milder in the administration group than that in the control group/the total number of rats in the administration group×100%).

## C[C@@H]1CCN(C(=O)CC#N)C[C@@H]1N(C)c1ncnc2c1ccn2C(=O)N(C)CCOC(=O)C1CCCCC1 [Compound A16]
[1]; Afatinib 40 mg/kg once a day, ointment 1.0 wt% once a day, 14 days
  Control Rate: 60%
[1]; Afatinib 40 mg/kg once a day, ointment 5.0 wt% once a day, 14 days
  Control Rate: 80%
[1]; Afatinib 40 mg/kg once a day, ointment 10.0 wt% once a day, 14 days
  Control Rate: 100%
[1]; BPI-7711 60 mg/kg once a day, ointment 1.0 wt% once a day, 12 days
  Control Rate: 50%
[1]; Erlotinib 70 mg/kg once a day, ointment 0.3 wt% once a day, 14 days
  Control Rate: 30%
[1]; Erlotinib 70 mg/kg once a day, ointment 3.0 wt% once a day, 14 days
  Control Rate: 50%
[1]; Zorifertinib 60 mg/kg once a day, ointment 1.0 wt% once a day, 14 days
  Control Rate: 30%
[2]
  half-life at 2 µM: 2.2 min
[2]; 0 min
  % Retained: 100.0%
[2]; 10 min
  % Retained: 4.5%
[2]; 30 min
  % Retained: 0.0%
[2]; 60 min
  % Retained: 0.0%
[2]; 120 min
  % Retained: 0.0%
[3]; ointment 0.1 wt%
  Reduction Rate of Ear Swelling: 25%
[3]; ointment 1.0 wt%
  Reduction Rate of Ear Swelling: 35%
[3]; ointment 5.0 wt%
  Reduction Rate of Ear Swelling: 39%
[3]; ointment 10.0 wt%
  Reduction Rate of Ear Swelling: 42%
[4]
  half-life at 2 µM: 2.8 min
[4]; 0 min
  % Retained: 100.0%
[4]; 10 min
  % Retained: 8.3%
[4]; 30 min
  % Retained: 0.1%
[4]; 60 min
  % Retained: 0.0%
[4]; 120 min
  % Retained: 0.0%
[5]; Cetuximab 100 mg/kg twice a week via tail vein, ointment 0.3 wt% once a day, 10 days
  Control Rate: 10%
[5]; Cetuximab 100 mg/kg twice a week via tail vein, ointment 3.0 wt% once a day, 10 days
  Control Rate: 50%
[5]; Cetuximab 100 mg/kg twice a week via tail vein, ointment 10.0 wt% once a day, 10 days
  Control Rate: 70%
[5]; Panitumumab 10 mg/kg twice a week via tail vein, ointment 1.0 wt% once a day, 14 days
  Control Rate: 50%
[5]; Panitumumab 10 mg/kg twice a week via tail vein, ointment 5.0 wt% once a day, 14 days
  Control Rate: 80%
[5]; Panitumumab 10 mg/kg twice a week via tail vein, ointment 10.0 wt% once a day, 14 days
  Control Rate: 60%

## C=CC(=O)N1C[C@@H](Nc2ncnc3c2ccn3C(=O)N(C)CCOC(=O)C2CC2)CC[C@H]1C [Compound A33]
[6]; Cetuximab 100 mg/kg twice a week via tail vein, ointment 0.1 wt%, 10 days of drug application
  Control Rate: 20%
[6]; Cetuximab 100 mg/kg twice a week via tail vein, ointment 1.0 wt%, 10 days of drug application
  Control Rate: 50%
[6]; Cetuximab 100 mg/kg twice a week via tail vein, ointment 5.0 wt%, 10 days of drug application
  Control Rate: 80%
[6]; Cetuximab 100 mg/kg twice a week via tail vein, ointment 10.0 wt%, 10 days of drug application
  Control Rate: 100%
[6]; Panitumumab 6 mg/kg twice a week via tail vein, ointment 0.1 wt%, 8 days of drug application
  Control Rate: 30%
[6]; Panitumumab 6 mg/kg twice a week via tail vein, ointment 1.0 wt%, 8 days of drug application
  Control Rate: 70%
[6]; Panitumumab 6 mg/kg twice a week via tail vein, ointment 5.0 wt%, 8 days of drug application
  Control Rate: 70%
[6]; Panitumumab 6 mg/kg twice a week via tail vein, ointment 10.0 wt%, 8 days of drug application
  Control Rate: 100%
[7]; EAI045 80 mg/kg once a day, 8 dosing modelling days, ointment 1.0 wt% once a day
  Control Rate: 30%
[7]; EAI045 80 mg/kg once a day, 8 dosing modelling days, ointment 5.0 wt% once a day
  Control Rate: 60%
[7]; Osimertinib 60 mg/kg twice a day, 7 dosing modelling days, ointment 3.0 wt% once a day
  Control Rate: 30%
[7]; Osimertinib 60 mg/kg twice a day, 7 dosing modelling days, ointment 10.0 wt% once a day
  Control Rate: 70%
[3]; ointment 1.0 wt%
  Reduction Rate of Ear Swelling: 22%
[3]; ointment 5.0 wt%
  Reduction Rate of Ear Swelling: 32%
